According to US8604055B2, “Substituted benzylamino quinolines as cholesterol ester-transfer protein inhibitors” (Dr. Reddy's Laboratories Ltd., priority 2004, dated 2013):

What was measured:
[1] = target: T1, Recombinant CETP enzyme (Homo sapiens, UniProt P11597); test: In vitro fluorescence-based CETP inhibition assay (BODIPY-CE transfer from donor to acceptor microemulsions); format: biochemical; conditions: recombinant CETP 0.14 ng/μl; transfer of fluorescent cholesteryl ester monitored over 2 hours; vs DMSO controls
T1 construct: purchased Cardiovascular Targets
T1 sequence (P11597 18-493): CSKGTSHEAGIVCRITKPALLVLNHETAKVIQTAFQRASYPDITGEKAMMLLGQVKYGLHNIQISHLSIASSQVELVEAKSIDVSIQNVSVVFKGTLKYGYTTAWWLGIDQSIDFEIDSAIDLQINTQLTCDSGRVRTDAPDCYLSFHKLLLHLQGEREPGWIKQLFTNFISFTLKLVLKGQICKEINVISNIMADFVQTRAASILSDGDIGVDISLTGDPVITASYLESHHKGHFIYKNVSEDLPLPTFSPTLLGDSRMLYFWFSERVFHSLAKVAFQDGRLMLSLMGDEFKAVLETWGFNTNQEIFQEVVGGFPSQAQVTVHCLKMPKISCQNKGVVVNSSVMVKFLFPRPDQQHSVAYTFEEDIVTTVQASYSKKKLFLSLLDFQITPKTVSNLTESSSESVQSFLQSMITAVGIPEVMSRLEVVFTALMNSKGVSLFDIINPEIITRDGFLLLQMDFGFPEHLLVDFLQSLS
Protocol: An in vitro fluorescence-based assay to identify CETP inhibitors was developed from modifications of the protocols outlined in Bisgaier et al., J Lipid Res., 34(9): 1625-34 (1993) and Epps et al., Chem Phys Lipids., 77(1): 51-63 (1995). Acceptor and donor lipid microemulsions were prepared according to Bisgaier et al., 1993, except that the buffer was prepared with 0.67 ug/mL human HDL (Calbiochem). Donor microemulsions contained the fluorescent cholesteryl ester analog BODIPY-CE (Molecular Probes), characterized by excitation and emission maxima at 503 nm and 518 nm, respectively. The CETP-mediated transfer of fluorescent cholesteryl ester to acceptor particles was monitored over a 2-hour time period using the FAM filter set (excitation 492 nm, emission 516 nm) in an MX3000P fluorescent plate reader (Stratagene). Recombinant CETP enzyme (Cardiovascular Targets) was used at 0.14 ng/μl, final concentration, to achieve lipid transfer. CETP inhibition by compounds was compared to DMSO controlsand graphed as a percentage of the control CETP activity over 2 hours. The IC50 curves for CETP inhibition were generated from the activity profiles. Active compounds were also tested for CETP inhibition as above, but in the presence of 3% human serum albumin, fraction V (Calbiochem).

Row | Structure (SMILES) | IC50 [1] | melting point
1 | Cc1nn(C)c2nc(N(CC3CCC3)CC3CC3)c(CN(Cc3cc(C(F)(F)F)cc(C(F)(F)F)c3)c3nnn(C)n3)cc12 [Example 5, (5-{[(3,5-bis-trifluoromethyl-benzyl)-(2-methyl-2H-tetrazole-5-yl)-amino]-methyl}-1,3-dimethyl-1H-pyrazolo[3,4-b]pyridin-6-yl)-cyclobutylmethyl-cyclopropylmethyl-amine] | ≤ 1000 nM | 84 to 85 °C
2 | Cc1cccc2cc(CN(Cc3cc(C(F)(F)F)cc(C(F)(F)F)c3)c3nnn(C)n3)c(N(CC3CC3)CC3CC3)nc12 [Example 57] | ≤ 1000 nM | 63 °C
3 | CCN(CC1CCCC1)c1nc2ccccc2cc1CN(Cc1cc(C(F)(F)F)cc(C(F)(F)F)c1)C(N)=S [Example 62, 1-(3,5-bis-trifluoromethyl-benzyl)-1-[2-(cyclopentylmethyl-ethyl-amino)-quinolin-3-ylmethyl]-thiourea] |  | 98 °C
4 | CCN(CC1CCC1)c1nc2c(cnn2CC)cc1CN(Cc1cc(C(F)(F)F)cc(C(F)(F)F)c1)c1nnn(C)n1 [Example 15, (5-{[(3,5-bis-trifluoromethyl-benzyl)-(2-methyl-2H-tetrazol-5-yl)-amino]-methyl}-1-ethyl-1H-pyrazolo[3,4-b]-yridin-6-yl)-cyclobutylmethyl-ethyl-amine] | ≤ 1000 nM | 76 to 77 °C
5 | CCN(CC1CCCC1)c1nc2ccccc2cc1CN(Cc1cc(C(F)(F)F)cc(C(F)(F)F)c1)c1nnn(C)n1 [Example 52] | ≤ 1000 nM | 97 °C
6 | CCN(CC1CCCC1)c1nc2ccccc2cc1CN(Cc1cc(C(F)(F)F)cc(C(F)(F)F)c1)C(N)=O [Example 59, 1-(3,5 bistrifluoromethyl-benzyl)-1-[(2-cyclopentylmethyl-ethyl-amino)-quinoline-3-ylmethyl]-urea] | ≤ 5000 nM | 92 to 94 °C
7 | Cc1cccc2cc(CN(Cc3cc(C(F)(F)F)cc(C(F)(F)F)c3)c3ncc(N4CCOCC4)cn3)c(N(CC3CC3)CC3CC3)nc12 [Example 106, (3-{[(3,5-bis-trifluoromethyl-benzyl)-(5-morpholin-4-yl-pyrimidin-2-yl)-amino]-methyl}-8-methyl-quinolin-2-yl)-bis-cyclopropylmethyl-amine] |  | 123 to 124 °C
8 | CCN(CC(C)(C)C)c1nc2c(cc1CN(Cc1cc(C(F)(F)F)cc(C(F)(F)F)c1)c1nnn(C)n1)c(C)nn2C [Example 6, (5-{[(3,5-bis-trifluoromethyl-benzyl)-(2-methyl-2H-tetrazole-5-yl)-amino]-methyl}-1,3-dimethyl-1H-pyrazolo[3,4-b]pyridin-6-yl)-(2,2-dimethyl-propyl)-ethyl-amine] | ≤ 1000 nM | 72 to 73 °C
9 | CCN(CC1CCCC1)c1nc2c(cc1CN(Cc1cc(C(F)(F)F)cc(C(F)(F)F)c1)c1nc(C(F)(F)F)co1)c(C)nn2C [Example 22, (5-{[(3,5-bis-trifluoromethyl-benzyl)-(4-trifluoromethyl-oxazol-2-yl)-amino]-methyl}-1,3-dimethyl-1H-pyrazolo[3,4-b]-pyridin-6-yl)-cyclopentylmethyl-ethyl-amine] | ≤ 1000 nM | 139 °C
10 | CCC[S+]([O-])c1nc2c(C)cccc2cc1CN(Cc1cc(C(F)(F)F)cc(C(F)(F)F)c1)C(=O)OCC (stereo not drawn) [Example 137, (3,5-bis-trifluoromethyl-benzyl)-[8-methyl-2-(propane-1-sulfinyl)-quinolin-3-ylmethyl]-carbamic acid ethyl ester] |  | 86 °C
11 | CCOC(=N)N(Cc1cc(C(F)(F)F)cc(C(F)(F)F)c1)Cc1cc2ccccc2nc1N(CC)CC1CCCC1 [Example 61] | ≤ 5000 nM | 158 to 160 °C
12 | CCN(c1nc2c(cc1CN(Cc1cc(C(F)(F)F)cc(C(F)(F)F)c1)c1nnn(C)n1)c(C)nn2C)C1CCCC1 [Example 8, (5-{[(3,5-bis-trifluoromethyl-benzyl)-(2-methyl-2H-tetrazole-5-yl)-amino]-methyl}-1,3-dimethyl-1H-pyrazolo[3,4-b]pyridin-6-yl)-cyclopentyl-ethyl-amine] | ≤ 1000 nM | 43 to 44 °C
13 | CCN(CC1CCCC1)c1nc2ccccc2cc1CN(Cc1cc(C(F)(F)F)cc(C(F)(F)F)c1)c1nnc(C)o1 [Example 58, (3-{[(3,5-bis-trifluoromethyl-benzyl)-(5-methyl-[1,3,4]oxodiazol-2-yl)-amino]-methyl)-quinolin-2-yl)-cyclopentylmethyl-ethyl-amine] | ≤ 5000 nM | 126 to 127 °C
14 | CCN(CC1CCCC1)c1nc2ccccc2cc1CN(Cc1cc(C(F)(F)F)cc(C(F)(F)F)c1)c1nnnn1C [Example 53, (3-{[(3,5-bis-trifluoromethyl-benzyl)-(1-methyl-1H-tetrazol-5-yl)-amino]-methyl}-quinolin-2-yl)-cyclopentylmethyl-ethyl-amine] | ≤ 5000 nM | 110 °C
15 | CCOC(=O)c1c(CN(Cc2cc(C(F)(F)F)cc(C(F)(F)F)c2)c2nnn(C)n2)c2ccccc2n1C [Example 125, 3-{[(3,5-bis-trifluoromethyl-benzyl)-(2-methyl-2H-tetrazol-5-yl)-amino]-methyl}-1-methyl-1H-indole-2-carboxylic acid ethyl ester] |  | 83 °C
16 | CCCSc1nc2c(C)cccc2cc1CN(Cc1cc(C(F)(F)F)cc(C(F)(F)F)c1)C(=O)OCC [Example 135, (3,5-bis-trifluoromethyl-benzyl)-(8-methyl-2-propylsulfanyl-quinolin-3-ylmethyl)-carbamic acid ethyl ester] |  | 42 °C
